Data on four compounds can be found in US20080090835A1, “Polymorphic forms of ziprasidone HCl and processes for their preparation” (Teva Pharmaceuticals USA, Inc. for Barbados, priority 2003, published 2008).

Holding throughout (format): physicochemical
A short description of series [1]: Heating at 80-105° C. overnight: crystal form and water content. As to conditions: for Crystal form after heating at 80-105° C. overnight / Crystal form after heating at elevated temperature: HCl; for Crystal form after heating at elevated temperature: about 80° C. overnight. An excerpt: (§1) Form A is characterized by an X-Ray diffraction pattern having peaks at about 10.9, 17.4 19.1, 25.0 and 26.0±0.2 degrees 2 theta.
(§2) In another aspect, the present invention provides for ziprasidone HCl Form F. Ziprasidone HCl Form F is characterized by an XRD pattern (FIG. 7) with peaks at 11.0, 18.1, 19.5, 21.9±0.2 degrees 2 theta. Ziprasidone HCl Form F is further characterized by XRD peaks at 14.9, 24.9, 26.1±0.2 degrees 2 theta. […] The water content and the weight loss by TGA of the sample may range of about 2.6% to about 16% by weight.
(§3) X-Ray powder diffraction data were obtained using by method known in the art using a SCINTAG powder X-Ray diffractometer model X'TRA equipped with a solid state detector. Copper radiation of 1.5418 Å was used. A round aluminum sample holder with round zero background quartz plate, with cavity of 25(diameter)*0.5(dept) mm.
(§4) The water content of ziprasidone HCl was measured by the methods known in the art like Karl Fisher or thermogravimetric analysis (TGA). In the case of ziprasidone HCl F, the TGA and Karl Fisher analysis matched, while for ziprasidone HCl form E the TGA analysis exceeded by far that of Karl Fisher, as an indication that a significant quantity of solvent is present.

Series [2] is described as follows: Equilibration at different relative humidities for 22 days: water uptake (TGA weight loss) and crystal form. The conditions noted are these: for TGA weight loss (%) (water uptake): HCl.
Text: as §1, §2, §3
TGA analysis was done using a Mettler M3 meter. The weight of the samples was about 10 mg; the samples were scanned at a rate of 10° C./min from 25° C. to 200° C. The oven was constantly purged with nitrogen gas at a flow rate of 40 ml/min. Standard 70 μl alumina crucibles covered by lids with 1 hole were used.
as §4

The nature of another series: Solubility in water.
Series [3] in a line: Solubility in methanol (noted for Karl Fisher water determination). An excerpt: Ziprasidone HCl Form G may have a water content of about 5% to about 12%. Ziprasidone HCl Form G may be a dihydrate (about 7.4% stoichiometric value for the dihydrate) or a trihydrate (about 10.7% stoichiometric value for the trihydrate).

Counter-ions that a name gives are not always drawn.

As to `O=C1Cc2cc(CCN3CCN(c4nsc5ccccc45)CC3)c(Cl)cc2N1` [ziprasidone HCl form E, ziprasidone HCl], the “Crystal form after heating at 80-105° C. overnight” value in series [1] is given as “Amorphous + form F”. The “Crystal form after heating at elevated temperature” value in series [1] is “transforms to amorphous form”. For the same compound, the Crystal form entry in series [2] (RH 0%, 22 days) is reported as “Amorphous”; in series [2] (RH 80%, 22 days), “Monohydrate +”; in series [2] (RH 100%, 22 days), “Monohydrate +”. For the same compound, the “TGA weight loss (%) (water uptake)” value in series [2] (RH 0%, 22 days) was determined as 5.3%; in series [2] (RH 20%, 22 days), 7.2%; in series [2] (RH 40%, 22 days) it was 4.8%; in series [2] (RH 60%, 22 days) it was 5.0%; in series [2] (RH 80%, 22 days), 9.2%; in series [2] (RH 100%, 22 days), 51.3%. Also, in series [2] (RH about 20% to about 60%, about 22 days), the “Crystal form after exposure to relative humidity of about 20% to about 60%” value is “transforms to Form A”. The “Crystal form after exposure to low relative humidity” value in series [2] (about 10% to about 0% relative humidity, 22 days) is on record as “transforms to amorphous form”. Also, the “Crystal form after exposure to high relative humidity” value in series [2] (high relative humidity, about 22 days) was “transforms to form M”.

With `O=C1Cc2cc(CCN3CCN(c4nsc5ccccc45)CC3)c(Cl)cc2N1` [ziprasidone HCl], the Solubility in water entry in the series “Solubility in water” is “low solubility”.

As for `O=C1Cc2cc(CCN3CCN(c4nsc5ccccc45)CC3)c(Cl)cc2N1` [Ziprasidone HCl Form G, ziprasidone HCl], the Solubility in methanol entry in series [3] was “sparingly soluble”.

With `O=C1Cc2cc(CCN3CCN(c4nsc5ccccc45)CC3)c(Cl)cc2N1` [ziprasidone HCl form F, ziprasidone HCl], in series [1], the “Crystal form after heating at 80-105° C. overnight” value was “Form F”. In series [1], the “Crystal form after heating at elevated temperature” value was “retains its original crystal form”. The “% water content” value in series [1] (after heating at 80-105° C. overnight) worked out at 0.8%. The “Water content after heating” value in series [1] (heated overnight at about 80° C.) came out at 0.8%. The “TGA weight loss (%) (water uptake)” value in series [2] (RH 0%, 22 days) was 2.6%; in series [2] (RH 20%, 22 days), 4.2%; in series [2] (RH 40%, 22 days), 4.0%; in series [2] (RH 60%, 22 days), 4.5%; in series [2] (RH 80%, 22 days) it was 7.7%; in series [2] (RH 100%, 22 days) it was 15.8%. In addition, the “Crystal form after equilibration at relative humidity of about 0% to about 100%” value in series [2] (RH about 0% to about 100%) is listed as “retains its crystal form”.
